Results reported in patent US4994448A, “Condensed quinolinium and isoquinolinium derivatives” (Egis Gyogyszergyar, priority 1987, dated 1991).
Read-outs that look alike come from different tables or passages of the source.

Experiments:
Acute toxicity on mice = settings: mouse, in vivo, po
Procedure: White mice belonging to the CFLP strain (body weight 18-22 g; both male and female) are used, 10 animals for each dose. The test compound is administered orally in a volumen of 20 ml/kg. After treatment the animals are observed for a period of 7 days. The animals are kept in a plastic cage, at room temperature. The animals get tap water and standard mouse fodder ad libitum.

Tetrabenazine ptosis = assay: Tetrabenazine antagonism on mice (ptosis); type: in vivo; settings: for ED50: Mus musculus, oral, 30 min before Tetrabenazine 50 mg./kg. i.p.
Procedure: The test is carried out by the method of Hoffmeister et al. adapted to mice. For each does groups of 10 animals are used. The mice of the test groups are treated orally with the test compound while the controld animals receive the corresponding vehicle p.o. After 30 minutes a 50 mg./kg. i.p. dose of Tetrabenazine is administered. The animals with closed eye-lids are counted after 30, 60, 90 and 120 minutes, respectively, in each group. The average ptosis is calculated on the basis of all measurements in each group and expressed as the percentage of the deviation (ptosis) from the control group.

writhing (acetic acid) = assay: Analgesic effect, acetic acid writhing test on mice; type: in vivo; settings: for ED50: Mus musculus, oral, 60 min pre-treatment, 0.75% acetic acid i.p.; for Therapeutical index (writhing test): mouse, in vivo, po
Procedure: Method: acetic acid "writhing effect" on mice
To mice weighing 20-25 g. a 0.75% acetic acid solution is administered intraperitoneally in a volume of 20 ml./kg. According to the method of Neubold the characteristic writhing reactions are counted for each animal between the 5th and 10th minute and the total writhing number obtained for this 5 minutes' period is expressed as the percentage of the control group. The test compound is administered orally, the test is carried out by using a pre-treatment period of 60 minutes and 10 animals are used for each dose.

Reserpin ptosis = Reserpin ptosis antagonism on mice; type: in vivo; settings: for ED50: Mus musculus, sc, 1 h, compound given 60 min after reserpine 6 mg./kg. s.c.
Procedure: The average ptosis is calculated on the basis of all measurements in each group and expressed as the percentage of the deviation (ptosis) from the control group. Groups consisting of 10 mice are used for each does. The animals are treated with a 6 mg./kg. s.c. dose of reserpine, the test compound is administered after 60 minutes. The control animals receive a vehicle. The animals with closed eye-lids are counted in each group after 60 and 120 minutes. The evaluation is carried out as disclosed in the ptosis test No. 3.

[1] = test system: gastrointestinal peristalsis; assay: Antiperistaltic effect on mice (gastrointestinal peristalsis, carbon suspension, method of Stickney et al.); type: in vivo, mice (white, male and female); settings: for ED50: Mus musculus, read-out: Antiperistaltic effect ED50; for Therapeutical index (antiperistaltic effect): mouse, in vivo
Procedure: The […] effect is tested according to the method of […] et al. on white male and female mice weighing 20-25 g. […] The groups consist of 10 mice for each dose. The animals of the control group are treated at the same time under identical conditions with a vehicle. Twenty minutes after the administration of the carbon suspension the mice are sacrificed. The total length of the intestines and that of the intestines filled with carbon is measured.

Hexobarbital narcosis = Hexobarbital narcosis on mice; type: in vivo; settings: po; for ED50: Mus musculus, read-out: Hexobarbital narcosis ED50; for Therapeutical index (Hexobarbital narcosis): mouse, in vivo
Procedure: Groups consisting of 6 mice are used for each dose. The animals are treated orally with the test compound (the control group receives a vehicle), whereby sleeping is induced 1 hour later by administering a 40 mg./kg. i.v. dose of Hexobarbital both to the test and control groups.
Animals which have a sleeping time more than 2.5 times longer than that of the control group are considered to show a positive reaction. ED50 values are calculated from the thus-transofrmed data.

[2] = 7 days observation, Litchfield-Wilcoxon
[3] = 60 min before 10% carbon suspension

For `Cc1n[n+]2ccc3ccccc3c2nc1NCCO` [Example 36, 2-(2-Hydroxyethylamino)-3-methyl-as-triazino[3,2-a]isoquinolinium ethanesulfonate], the LD50 at 168 h (Acute toxicity on mice) was 1400 mg/kg, the ED50 (Tetrabenazine ptosis) was 20 mg/kg and the “Therapeutical index TI (Tetrabenazine ptosis antagonism)” value (Tetrabenazine ptosis) was 70.0.

With `CC1=N[n+]2ccc3ccccc3c2NC1(C)O` (stereo not shown) [Example 1, 2,3-Dimethyl-2-hydroxy-1,2-dihydro-as-triazino[3,2-a]isoquinolinium ethanesulfonate] the ED50 (writhing (acetic acid)) was 60 mg/kg, the “Therapeutical index (writhing test)” value (writhing (acetic acid)) was 7.3 and the LD50 at 168 h (Acute toxicity on mice) was 440 mg/kg.

In the case of `O=c1cn[n+]2c(ccc3ccccc32)[nH]1` [Example 26, 3(4H)-Oxo-as-triazino[3,2-a]quinoline-11ium ethanesulfonate], the LD50 at 168 h (Acute toxicity on mice; [2]) is reported as 450 mg/kg.

For `Cn1c(=O)c(-c2ccccc2)n[n+]2c3ccccc3ccc12` [Example 18, 2-Phenyl-4-methyl-3(4H)-oxo-as-triazino[3,2-a]quinoline-11-ium ethanesulfonate], the LD50 at 168 h (Acute toxicity on mice) was 2000 mg/kg, the ED50 (Reserpin ptosis) was 40 mg/kg and the “Therapeutical index TI (Reserpin ptosis antagonism)” value (Reserpin ptosis) was 50.0.

For `COc1ccc(Cc2nccc3cc(OC)c(OC)cc23)cc1OC` [Papaverin, reference compound], the ED50 [1] was greater than 280 mg/kg and the “inhibition (antiperistaltic effect)” value ([1]; printed beside ED50 above 280 mg./kg.) was 36.1%.

Work on `Cc1n[n+]2c(ccc3ccccc32)[nH]c1=O` [Example 21, 2-Methyl-3(4H)-oxo-as-triazino[3,2-a]quinoline-11-ium ethanesulfonate] yielded an LD50 at 168 h (Acute toxicity on mice; [2]) of 700 mg/kg.

In the case of `c1ccc(CNc2nc3c4ccccc4cc[n+]3nc2-c2ccccc2)cc1` [Example 8, 2-Benzylamino-3-phenyl-as-triazino[3,2-a]isoquinolinium ethanesulfonate], the LD50 at 168 h (Acute toxicity on mice) is reported as 340 mg/kg, the ED50 (Reserpin ptosis) is reported as 31 mg/kg and the “Therapeutical index TI (Reserpin ptosis antagonism)” value (Reserpin ptosis) is reported as 11.0.

For `Cc1n[n+]2ccc3ccccc3c2nc1NCc1ccccc1` [Example 40, 2-Benzylamino-3-methyl-as-triazino[3,2-a]isoquinolinium ethanesulfonate], the LD50 at 168 h (Acute toxicity on mice) was 90 mg/kg, the ED50 [1, 3] was 6.5 mg/kg and the “Therapeutical index (antiperistaltic effect)” value [1] was 13.85.

With `CCCC(C)(COC(N)=O)COC(N)=O` [Meprobamate, reference compound] the ED50 (Hexobarbital narcosis) was 260 mg/kg and the “Therapeutical index (Hexobarbital narcosis)” value (Hexobarbital narcosis) was 4.2.

With `OCCNc1cn[n+]2ccc3ccccc3c2n1` [Example 3, 2-(2-Hydroxyethylamino)-as-triazino[3,2-a]isoquinolinium ethanesulfonate] the LD50 at 168 h (Acute toxicity on mice) was 500 mg/kg, the ED50 (Tetrabenazine ptosis) was 50 mg/kg and the “Therapeutical index TI (Tetrabenazine ptosis antagonism)” value (Tetrabenazine ptosis) was 10.0.

In the case of `CN(C)CCC=C1c2ccccc2CCc2ccccc21` [Amitriptylin, reference compound], the ED50 (Reserpin ptosis) is reported as 65 mg/kg, the “Therapeutical index TI (Reserpin ptosis antagonism)” value (Reserpin ptosis) is reported as 3.5 and the ED50 (Tetrabenazine ptosis) is reported as 12 mg/kg. The “Therapeutical index TI (Tetrabenazine ptosis antagonism)” value (Tetrabenazine ptosis) was 18.7.

With `Cc1n[n+]2c(ccc3ccccc32)nc1NCCO` [Example 24, 2-Methyl-3(2-hydroxyethylamino)as-triazino[3,2-a]quinolinium ethanesulfonate] the LD50 at 168 h (Acute toxicity on mice; [2]) was 130 mg/kg.

Work on `CC(=O)Nc1ccc(O)cc1` [Paracetamol, reference compound] yielded an ED50 (writhing (acetic acid)) of 180 mg/kg.

In the case of `Cc1n[n+]2c3ccccc3ccc2n(C)c1=O` [Example 17, 2,4-Dimethyl-3(4H)-oxo-as-triazino[3,2-a]isoquinoline-11-ium ethanesulfonate], the LD50 at 168 h (Acute toxicity on mice) is reported as 1000 mg/kg, the ED50 (Reserpin ptosis) is reported as 40 mg/kg and the “Therapeutical index TI (Reserpin ptosis antagonism)” value (Reserpin ptosis) is reported as 25.0.

For `CN(C)CCCNc1nc2c3ccccc3cc[n+]2nc1-c1ccccc1` [Example 6, 2-(3-Dimethylaminopropylamino)-3-phenyl-as-triazino[3,2-a]isoquinolinium ethanesulfonate], the ED50 (writhing (acetic acid)) was 120 mg/kg, the “Therapeutical index (writhing test)” value (writhing (acetic acid)) was 7.1 and the LD50 at 168 h (Acute toxicity on mice) was 850 mg/kg. For the same molecule, the ED50 (Hexobarbital narcosis) was 35 mg/kg and the “Therapeutical index (Hexobarbital narcosis)” value (Hexobarbital narcosis) was 24.3.

In the case of `O=c1nc2c3ccccc3ccn2nc1-c1ccccc1` [Example 11, 3-Phenyl-as-triazino[3,2-a]isoquinoline-2(5H)-one], the LD50 at 168 h (Acute toxicity on mice) is reported as 2000 mg/kg, the ED50 (Reserpin ptosis) is reported as 33 mg/kg and the “Therapeutical index TI (Reserpin ptosis antagonism)” value (Reserpin ptosis) is reported as 60.6. The ED50 [1, 3] was roughly 220 mg/kg and the “Therapeutical index (antiperistaltic effect)” value [1] was 9.1.

`Cc1n[n+]2ccc3ccccc3c2nc1NCCCN(C)C` [Example 5, 2-(3-Dimethylaminopropylamino)-3-methyl-as-triazino[3,2-a]isoquinolinium ethanesulfonate] showed an LD50 at 168 h (Acute toxicity on mice; [2]) of 2000 mg/kg.

For `OC1C=N[n+]2ccc3ccccc3c2N1` (stereo not shown) [Example 16, 2-Hydroxy-1,2-dihydro-as-triazino[3,2-a]isoquinolinium ethanesulfonate], the LD50 at 168 h (Acute toxicity on mice; [2]) was 650 mg/kg.

`Nc1nc2c3ccccc3cc[n+]2nc1-c1ccccc1` [Example 39, 2-Amino-3-phenyl-as-triazino[3,2-a]isoquinolinium ethanesulfonate] showed an LD50 at 168 h (Acute toxicity on mice; [2]) of 500 mg/kg.

For `Cc1n[n+]2ccc3ccccc3c2[nH]c1=O` [Example 9, 3-Methyl-2(1H)-oxo-as-triazino[3,2-a]isoquinolinium-5-ium-ethanesulfonate], the ED50 (writhing (acetic acid)) was 107 mg/kg, the “Therapeutical index (writhing test)” value (writhing (acetic acid)) was 8.4 and the LD50 at 168 h (Acute toxicity on mice) was 900 mg/kg. The ED50 (Hexobarbital narcosis) was 56 mg/kg and the “Therapeutical index (Hexobarbital narcosis)” value (Hexobarbital narcosis) was 16.1.

In the case of `O=c1[nH]c2ccc3ccccc3[n+]2nc1-c1ccccc1` [Example 27, 2-Phenyl-3(4H)-oxo-as-triazino[3,2-a]quinoline-11ium ethanesulfonate], the ED50 (writhing (acetic acid)) is reported as 23.8 mg/kg and the “Therapeutical index (writhing test)” value (writhing (acetic acid)) is reported as 42.0.

In the case of `Cc1n[n+]2ccc3ccccc3c2nc1N` [Example 38, 2-Amino-3-methyl-as-triazino[3,2-a]isoquinolinium ethanesulfonate], the ED50 (writhing (acetic acid)) is reported as 65 mg/kg, the “Therapeutical index (writhing test)” value (writhing (acetic acid)) is reported as 5.8 and the LD50 at 168 h (Acute toxicity on mice) is reported as 380 mg/kg. The ED50 (Hexobarbital narcosis) was 17 mg/kg, the “Therapeutical index (Hexobarbital narcosis)” value (Hexobarbital narcosis) was 22.4 and the ED50 (Tetrabenazine ptosis) was 9.2 mg/kg. For the same molecule, the “Therapeutical index TI (Tetrabenazine ptosis antagonism)” value (Tetrabenazine ptosis) was 41.3.

`c1ccc2c(c1)cc[n+]1ncc(N3CCOCC3)nc21` [Example 2, 2-Morpholino-as-triazino[3,2-a]isoquinolinium ethanesulfonate] gave an LD50 at 168 h (Acute toxicity on mice; [2]) of 450 mg/kg.

`OCCNc1nc2c3ccccc3cc[n+]2nc1-c1ccccc1` [Example 37, 2-(2-Hydroxyethylamino)-3-phenyl-as-triazino[3,2-a]isoquinolinium ethanesulfonate] showed an LD50 at 168 h (Acute toxicity on mice; [2]) of 750 mg/kg.

Work on `Cc1n[n+]2ccc3ccccc3c2nc1N1CCOCC1` [Example 34, 2-Morpholino-3-methyl-as-triazino[3,2-a]isoquinolinium ethanesulfonate] yielded an LD50 at 168 h (Acute toxicity on mice; [2]) of 1200 mg/kg.

Work on `OCCNc1nc2ccc3ccccc3[n+]2nc1-c1ccccc1` [Example 25, 3-(2-Hydroxyethylamino)-2-phenyl-as-triazino[3,2-a]quinolinium ethanesulfonate] yielded an LD50 at 168 h (Acute toxicity on mice; [2]) of 500 mg/kg.
